Test results published in patent US20230398125A1, “TREATING HEPATITIS” (Albireo AB, priority 2022, published 2023).
Like-named read-outs stand apart in the source and are kept apart here.

How the values were obtained:
Type in all cases: cell-based
Human IBAT = target: T1, Human IBAT (Homo sapiens, UniProt Q12908); experiment: 3H-taurocholic acid uptake in human IBAT-overexpressing cells; details: 3H-taurocholic acid transport
T1 construct: expressed in transfected cells; kept under puromycin selection
T1 sequence (Q12908 1-348): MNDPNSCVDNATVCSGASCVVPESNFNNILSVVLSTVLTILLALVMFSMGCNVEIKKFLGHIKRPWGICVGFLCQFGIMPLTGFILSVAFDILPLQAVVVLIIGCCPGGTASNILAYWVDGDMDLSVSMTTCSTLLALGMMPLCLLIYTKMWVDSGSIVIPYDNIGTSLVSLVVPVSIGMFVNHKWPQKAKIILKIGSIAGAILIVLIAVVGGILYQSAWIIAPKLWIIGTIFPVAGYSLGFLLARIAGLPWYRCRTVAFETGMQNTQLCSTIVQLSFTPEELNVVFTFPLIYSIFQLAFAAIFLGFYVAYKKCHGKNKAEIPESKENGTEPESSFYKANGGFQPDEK
Description: 10,000 cells (Human & Mouse IBAT-overexpressing cells) were seeded in 96-wells plate in 100 μL MEM-alpha medium supplemented with 10% FBS containing puromycin (10 μg/mL) and incubated at 37° C. in 5% CO2 for 48 hrs. After incubation media was decanted from the wells, cells were washed two times with 250 μL of basal MEM-alpha medium (FBS-free). After each wash, plates were tapped against paper towel to ensure maximum removal of residual media. Test inhibitor dilutions (highest test concentration being 10 μM, 3-fold serial dilution, 10 concentrations) prepared in DMSO were added to the incubation mix (maintaining 0.2% final DMSO concentration) containing 0.25 μM ^3H-taurocholic acid and 5 μM of cold taurocholic acid. […]
After incubation, the reaction was stopped by keeping the plates on ice water mix for 2-3 minutes and then the incubation mix was aspirated completely from the wells. […] 100 μL of MicroScint-20 was added to the wells and kept overnight at room temperature before reading the plates in MicroBeta2 liquid Scintillation Counter from PerkinElmer under ^3H Test for I/L-BAT protocol (set at 120 seconds reading time per well, with normal plate orientation).
Percentage inhibitions were calculated with respect to the assay controls. […]

ASBT = target: T2, ASBT (Homo sapiens, UniProt Q12908); experiment: [3H]taurocholate uptake, apparent Ki for ASBT; details: read-out: inhibitory constant (Ki) for ASBT
T2 construct: expressed in transfected cells
T2 sequence (Q12908 1-348): T1 sequence (Q12908 1-348)

[1] = tested on: Primary Human Hepatocytes; experiment: XTT cell toxicity in primary human hepatocytes
Description: (§1) Multiplicity of Infection (MOI) is defined as the number of HBV genome equivalents, as determined by the qPCR quantitation, added per cell in the respective growth format. The overnight media was removed from the cells and replaced with 190 μL of new, serum-free HI media/4% PEG8000 and 10 μL of the diluted virus stock (HepG2 AD38 genotype D) for a MOI of 500. Medium alone was added to the cells containing compound for the parallel cytotoxicity evaluation. After 18 hours of virus infection, the cells were gently washed five times with DPBS, followed by a new addition of 200 μL HI media containing compounds on day 1, day 4 and day 7 post-infection. In one set of experiments (Study #01), the effect of giving compound 18 h prior to infection, versus 18 h post-infection was studied. The supernatant removed from the cytotoxicity plates at each medium change was stored at −20° C. for shipment to the client. The supernatant was collected at 10 days post infection and stored at −20° C. for total extracellular HBV DNA copy number to be quantitatively determined by qPCR. Cell viability was measured by XTT tetrazolium dye at day 10 for the cytotoxicity plates.
(§2) Following incubation at 37° C. in a 5% CO2 incubator for ten days, the test plates were stained with the tetrazolium dye XTT (2,3-bis(2-methoxy-4-nitro-5-sulfophenyl}-5-[(phenylamino)carbonyl]-2H-tetrazolium hydroxide). XTT-tetrazolium was metabolized by the mitochondrial enzymes of metabolically active cells to a soluble formazan product. XTT solution was prepared daily as a stock of 1 mg/mL in RPMI1640. Phenazine methosulfate (PMS) solution was prepared at 0.15 mg/mL in PBS and stored in the dark at −20° C.
(§3) XTT/PMS stock was prepared immediately before use by adding 40 μL of PMS per mL of XTT solution. Fifty microliters of XTT/PMS were added to each well of the plate and the plate was re-incubated for 4 hours at 37° C. Plates were sealed with adhesive plate sealers and shaken gently or inverted several times to mix the soluble formazan product and the plate was read spectrophotometrically at 450/650 nm with a Molecular Devices Vmax plate reader.
(§4) Each concentration of inhibitor and controls were analyzed in triplicate for HBV DNA copies and for cellular toxicity, respectively. From control wells without inhibitor, the mean of these three replicates was calculated and the HBV DNA mean was set to 100% viral control and the XTT mean was set to 100% cell viability. The effect of compound was then expressed as % of viral control and % cell viability, respectively.

[2] = XTT cell toxicity in primary human hepatocytes; details: human, primary human hepatocytes, read-out: TC50
Description: as §1, §2, §3, §4

SMILES: CCCCC1CN(c2ccccc2)c2cc(SC)c(O/C=C(\F)C(=O)O)cc2S(=O)(=O)N1C (stereo not shown) [Compound 1, (Z)-3-((3-butyl-2-methyl-7-(methylthio)-1,1-dioxido-5-phenyl-2,3,4,5-tetrahydro-1,2,5-benzothiadiazepin-8-yl)oxy)-2-fluoroacrylic acid]
- IC50 (Human IBAT): 535 ± 83.3 nM
- Ki (ASBT): 2410 nM
- TC50 ([1]; Study #01, 18 h post-infection section): >1000 nM
- effect on cell viability ([1]; any concentration tested (up to 100 μmol/L)): did not affect cell viability
- CC50 at 10 days ([2]; Study #01, XTT, PHH): > 1000 nM
- CC50 at 10 days ([2]; Study #02): > 200 nM
- CC50 at 10 days ([2]; Study #03): > 50 nM
